SMILES strings stand for the structures. Where two headings read alike, the source gives them in different places.

In assay [1] the target is T1, PRMT5 (Homo sapiens, UniProt O14744).
T1 construct: purchased Viva (custom protein)
Briefly: PRMT5 biochemical IC50 assay with MTA as cofactor. Conditions: PRMT5, MTA as cofactor; read-out: MTA IC50.

For assay [2], the system named is HAP1 MTAP-deleted cell line. Kind of assay: Viability assay, MTAP-deleted cell line. The format is cell-based. From the text: Table 1 additionally indicates IC50 values in a viability assay for the MTAP-deleted cell line (column 10), indicating the effect of treatment with compound on cell survival.
Assay [3] addresses T1, PRMT5. Briefly: PRMT5 biochemical IC50 assay with no cofactor. Conditions: PRMT5, no cofactor. From the text: Table 1 indicates IC50 values (μM) against PRMT5 for exemplary compounds in the presence of SAM as cofactor, with no cofactor, and with MTA as cofactor, respectively (columns 4-6). […] Ki values can be calculated from the IC50 values as described in the Examples section. As detailed in the Examples section, for the assay performed in the presence of SAM, IC50=Ki×1.5 (Ki=IC50/1.5).

Assay [4] has as its system HAP1 MTAP-deleted cell line. Briefly: SDMA in-cell western assay, HAP1 MTAP-deleted. The format is cell-based. Conditions: for MTAP intact/deleted ratio: IC50 ratio HAP1 MTAP-intact / HAP1 MTAP-deleted. Summed up:
(§1)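 IC50 values come from SDMA signal quantified by in-cell western in two HAP1 lines, one with native MTAP levels and one lacking MTAP.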

Assay [5] deals with T1, PRMT5. Kind of assay: PRMT5 biochemical IC50 assay with SAM as cofactor. The conditions noted are these: PRMT5, SAM as cofactor; read-out: SAM IC50.
Assay [6] relates to HAP1 MTAP-intact cell line. Briefly: SDMA in-cell western assay, HAP1 MTAP-intact. It is filed as cell-based. The conditions noted are these: Homo sapiens. Summed up: as §1
[7] abbreviates: read-out: No Cofactor/ rel IC50.
[8] abbreviates: HAP1, SDMA in-cell western, HAP1 MTAP-intact, read-out: MTAP HAP1 intact IC50.
[9] abbreviates: Homo sapiens, HAP1, viability assay, HAP1 MTAP-deleted, read-out: HAP1 MTAP deleted viability.
Where [10] appears, read: Homo sapiens, HAP1, SDMA in-cell western, HAP1 MTAP-deleted, read-out: HAP1 MTAP deleted IC50.
The mark [11] stands for this setting: Homo sapiens, HAP1, viability assay, MTAP-deleted cell line, read-out: HAP1 MTAP deleted viability.
The mark [12] stands for this setting: Homo sapiens, HAP1, SDMA in-cell western, HAP1 MTAP-deleted, read-out: HAP 1 MTAP deleted IC50.
[13] abbreviates: Homo sapiens, HAP1, viability, HAP1 MTAP-deleted cell line, read-out: HAP1 MTAP deleted viability.

T1 sequence (O14744 whole entry): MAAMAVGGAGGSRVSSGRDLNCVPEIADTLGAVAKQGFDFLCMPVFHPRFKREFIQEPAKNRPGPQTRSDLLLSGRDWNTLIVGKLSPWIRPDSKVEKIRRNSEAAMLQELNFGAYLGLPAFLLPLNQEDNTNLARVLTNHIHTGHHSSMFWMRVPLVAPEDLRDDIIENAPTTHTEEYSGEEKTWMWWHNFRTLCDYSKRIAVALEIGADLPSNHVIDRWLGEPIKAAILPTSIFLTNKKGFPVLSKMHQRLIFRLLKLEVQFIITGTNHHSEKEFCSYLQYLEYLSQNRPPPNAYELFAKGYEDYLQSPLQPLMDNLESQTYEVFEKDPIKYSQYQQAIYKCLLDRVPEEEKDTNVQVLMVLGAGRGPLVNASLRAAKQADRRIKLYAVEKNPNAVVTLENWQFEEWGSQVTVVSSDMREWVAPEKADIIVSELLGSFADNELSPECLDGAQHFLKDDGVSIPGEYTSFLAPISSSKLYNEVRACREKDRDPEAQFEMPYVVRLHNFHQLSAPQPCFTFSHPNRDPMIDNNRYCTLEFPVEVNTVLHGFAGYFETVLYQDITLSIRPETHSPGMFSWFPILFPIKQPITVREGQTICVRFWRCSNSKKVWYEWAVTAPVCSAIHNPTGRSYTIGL
T1 sequence (Q9BQA1 whole entry partner): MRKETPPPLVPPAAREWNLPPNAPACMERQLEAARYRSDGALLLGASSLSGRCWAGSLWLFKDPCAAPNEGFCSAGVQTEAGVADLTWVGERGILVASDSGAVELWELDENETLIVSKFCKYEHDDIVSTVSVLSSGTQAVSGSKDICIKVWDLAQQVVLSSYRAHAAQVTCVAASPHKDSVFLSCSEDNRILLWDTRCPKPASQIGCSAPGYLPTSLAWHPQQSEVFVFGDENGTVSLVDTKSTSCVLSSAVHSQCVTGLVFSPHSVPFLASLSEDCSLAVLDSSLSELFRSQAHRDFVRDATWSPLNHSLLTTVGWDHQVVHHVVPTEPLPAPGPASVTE

As for `NC(=O)c1cncc(NC(=O)C(=O)N2CCCCC2C2CCCCC2)c1` (single isomer, unassigned) [Compound 108, 5-(2-(2-cyclohexylpiperidin-1-yl)-2-oxoacetamido)nicotinamide], the IC50 in assay [1] is above 500 nM; in assay [2] (viability assay, MTAP-deleted cell line, read-out: HAP1 MTAP deleted viability), above 10000 nM; in assay [3] (setting [7]), above 500 nM; in assay [4] (SDMA in-cell western, HAP1 MTAP-deleted, read-out: HAP 1 MTAP deleted IC50), above 1000 nM; in assay [5], above 500 nM; in assay [6] (setting [8]), above 1000 nM. In assay [4] (SDMA in-cell western), the “MTAP intact/deleted ratio” value is “C (an IC50 ratio of less than 3 fold)”.
Take `CNc1ccc([C@@H]2CC[C@@H](C)CN2C(=O)C(=O)Nc2cnc(N)c(C)c2)cn1` (single isomer, unassigned) [Compound 864]: the IC50 is below 50 nM in assay [1]; below 1000 nM in assay [2] (setting [9]); below 50 nM in assay [3] (read-out: No Cofactor/rel IC50); below 100 nM in assay [4] (setting [10]); 50 to 500 nM in assay [5]; 100 to 1000 nM in assay [6] (setting [8]). The MTAP intact/deleted ratio result in assay [4] (SDMA in-cell western) is recorded as “B (an IC50 ratio greater than or equal to 3 fold but lower than 10 fold)”.
For `C[C@@H]1CC[C@@H](c2cc(F)c(F)c(F)c2)N(C(=O)C(=O)Nc2cncc(C(N)=O)c2)C1` (single isomer, unassigned) [Compound 476], the IC50 in assay [1] is above 500 nM; in assay [2] (setting [11]), above 10000 nM; in assay [3] (read-out: No Cofactor/rel IC50) it was above 500 nM; in assay [4] (setting [10]), above 1000 nM; in assay [5] it was above 500 nM; in assay [6] (setting [8]), above 1000 nM. Moreover, in assay [4] (SDMA in-cell western), the MTAP intact/deleted ratio entry is reported as “C (an IC50 ratio of less than 3 fold)”.
Regarding `Cc1cc(NC(=O)C(=O)N2C[C@@H]3CC[C@@H](C3)[C@@H]2c2cccs2)cnc1N` (single isomer, unassigned) [Compound 137], the IC50 was below 50 nM in assay [1]; above 10000 nM in assay [2] (setting [11]); 50 to 500 nM in assay [3] (setting [7]); below 100 nM in assay [4] (setting [12]); 50 to 500 nM in assay [5]; above 1000 nM in assay [6] (setting [8]). Besides, in assay [4] (SDMA in-cell western), the “MTAP intact/deleted ratio” value is “A (an IC50 ratio greater than or equal to 10 fold)”.
Consider `CCc1cc(NC(=O)C(=O)N2C[C@@H](C)CC[C@@H]2c2ccc3sc(C4CCN(CC)CC4)nc3c2)cnc1N` [Compound 1252, N-(6-amino-5-ethylpyridin-3-yl)-2-((2R,53)-2-(2-(1-ethylpiperidin-4-yl)benzo[d]thiazol-5-yl)-5-methylpiperidin-1-yl)-2-oxoacetamide], for which the IC50 in assay [1] was below 50 nM; in assay [2] (setting [13]), below 1000 nM; in assay [3] (setting [7]), below 50 nM; in assay [4] (setting [12]), below 100 nM; in assay [5], 50 to 500 nM; in assay [6] (setting [8]), below 100 nM. In addition, the “MTAP intact/deleted ratio” value in assay [4] (SDMA in-cell western) is “A (an IC50 ratio greater than or equal to 10 fold)”.
Regarding `CCc1cc(NC(=O)C(=O)N2C[C@@H](C)CC[C@@H]2c2ccc(N)nc2)cnc1N` (single isomer, unassigned) [Compound 851], the IC50 is below 50 nM in assay [1]; below 1000 nM in assay [2] (setting [9]); below 50 nM in assay [3] (read-out: No Cofactor/rel IC50); below 100 nM in assay [4] (setting [10]); 50 to 500 nM in assay [5]; 100 to 1000 nM in assay [6] (setting [8]). Moreover, the MTAP intact/deleted ratio entry in assay [4] (SDMA in-cell western) is on record as “A (an IC50 ratio greater than or equal to 10 fold)”.
Turning to `Cc1cc(NC(=O)C(=O)N2C[C@@H](C)CC[C@@H]2c2cccc(C3CCN(C)CC3)c2)cnc1N` (single isomer, unassigned) [Compound 1253], the IC50 is below 50 nM in assay [1]; below 1000 nM in assay [2] (setting [13]); below 50 nM in assay [3] (setting [7]); below 100 nM in assay [4] (setting [12]); below 50 nM in assay [5]; 100 to 1000 nM in assay [6] (setting [8]). Also, the “MTAP intact/deleted ratio” value in assay [4] (SDMA in-cell western) is “A (an IC50 ratio greater than or equal to 10 fold)”.
As for `NC(=O)c1cncc(NC(=O)C(=O)N2CCCC3(C2)OC[C@@H]2C[C@@H]23)c1` (mixture of isomers) [Compound 124, rac-5-{2-[(R,5S)-3-Oxaspiro[bicyclo[3.1.0]hexane-2,3′-piperidine]-1′-yl]-2-oxoacetamido}pyridine-3-carboxamide], the IC50 is 50 to 500 nM in assay [1]; above 10000 nM in assay [2] (setting [11]); above 500 nM in assay [3] (setting [7]); above 1000 nM in assay [4] (setting [12]); above 500 nM in assay [5]; above 1000 nM in assay [6] (setting [8]). The “MTAP intact/deleted ratio” value in assay [4] (SDMA in-cell western) is reported as “C (an IC50 ratio of less than 3 fold)”.
Consider `C[C@@H]1CC[C@@H](c2ccc(F)c(Cl)c2)N(C(=O)C(=O)Nc2cncc(C(N)=O)c2)C1` (racemic) [Compound 338, rac-5-{2-[(2R,5S)-2-(3-Chloro-4-fluorophenyl)-5-methylpiperidin-1-yl]-2-oxoacetamido}pyridine-3-carboxamide], for which the IC50 in assay [1] is 50 to 500 nM; in assay [2] (setting [11]), 1000 to 10000 nM; in assay [3] (read-out: No Cofactor/rel IC50), 50 to 500 nM; in assay [4] (setting [10]), below 100 nM; in assay [5], 50 to 500 nM; in assay [6] (setting [8]), above 1000 nM. Also, the MTAP intact/deleted ratio entry in assay [4] (SDMA in-cell western) is listed as “A (an IC50 ratio greater than or equal to 10 fold)”.
In the case of `COc1ncc(NC(=O)C(=O)N2C[C@@H](C)CC[C@@H]2c2ccc(O)cc2)cc1C(N)=O` (single isomer, unassigned) [Compound 288], the IC50 is below 50 nM in assay [1]; below 1000 nM in assay [2] (Homo sapiens, HAP1, read-out: HAP1 MTAP deleted viability); below 50 nM in assay [3] (read-out: No Cofactor/rel IC50); below 100 nM in assay [4] (Homo sapiens, HAP1, read-out: HAP1 MTAP deleted IC50); 50 to 500 nM in assay [5]; 100 to 1000 nM in assay [6] (HAP1, read-out: MTAP HAP1 intact IC50). Moreover, in assay [4] (SDMA in-cell western), the MTAP intact/deleted ratio entry is on record as “A (an IC50 ratio greater than or equal to 10 fold)”.
For `C[C@@H]1CC[C@@H]([C@H]2CCC[C@H](O)C2)N(C(=O)C(=O)Nc2cncc(C(N)=O)c2)C1` (single isomer, unassigned) [Compound 530], the IC50 in assay [1] was above 500 nM; in assay [2] (Homo sapiens, HAP1, viability IC50, MTAP-deleted cell line, read-out: HAP1 MTAP deleted viability) it was above 10000 nM; in assay [3] (read-out: No Cofactor/rel IC50) it was above 500 nM; in assay [4] (setting [12]) it was above 1000 nM; in assay [5] it was above 500 nM; in assay [6] (setting [8]), above 1000 nM. Also, the MTAP intact/deleted ratio result in assay [4] (SDMA in-cell western) is “C (an IC50 ratio of less than 3 fold)”.
`C[C@H]1CC[C@H](c2ccc(F)c(Cl)c2)N(C(=O)C(=O)Nc2cncc(C(N)=O)c2)C1` (single isomer, unassigned) [Compound 512]: the IC50 in assay [1] is below 50 nM; in assay [2] (setting [11]), 1000 to 10000 nM; in assay [3] (read-out: No Cofactor/rel IC50), 50 to 500 nM; in assay [4] (setting [10]), below 100 nM; in assay [5] it was 50 to 500 nM; in assay [6] (setting [8]), above 1000 nM. For the same molecule, the MTAP intact/deleted ratio result in assay [4] (SDMA in-cell western) was “A (an IC50 ratio greater than or equal to 10 fold)”.
With `CNc1nc2cc([C@H]3CC[C@H](C)CN3C(=O)C(=O)Nc3cnc(N)c(C)c3)ccc2s1` (single isomer, unassigned) [Compound 852], the IC50 in assay [1] was below 50 nM; in assay [2] (setting [9]) it was below 1000 nM; in assay [3] (read-out: No Cofactor/rel IC50), below 50 nM; in assay [4] (setting [10]), below 100 nM; in assay [5], 50 to 500 nM; in assay [6] (setting [8]), 100 to 1000 nM. In addition, the MTAP intact/deleted ratio entry in assay [4] (SDMA in-cell western) is listed as “A (an IC50 ratio greater than or equal to 10 fold)”.
For the molecule `CCc1cc(NC(=O)C(=O)N2C[C@@H](C)CC[C@@H]2c2cccc(C3CCN(C)CC3)c2)cnc1N` [Compound 1363, N-(6-Amino-5-ethyl-3-pyridyl)-2-oxo-2-[(2R,5S)-5-methyl-2-[3-(1-methyl-4-piperidyl)phenyl]-1-piperidyl]acetamide], the IC50 in assay [1] is below 50 nM; in assay [2] (setting [13]), below 1000 nM; in assay [3] (setting [7]), below 50 nM; in assay [4] (setting [12]) it was below 100 nM; in assay [5] it was below 50 nM; in assay [6] (setting [8]), 100 to 1000 nM. In assay [4] (SDMA in-cell western), the “MTAP intact/deleted ratio” value is recorded as “A (an IC50 ratio greater than or equal to 10 fold)”.

The record behind these values is patent US11999727B2 (Tango Therapeutics, Inc., priority 2020, dated 2024).
